From patent publication US10731216B2, “Methods and compositions for biomarkers of depression and pharmacoresponse” (priority 2014, dated 2020)
Entries after “also recorded” stand apart in the source; their conditions may differ. Like-named read-outs stand apart in the source and are kept apart here.

Legend:
mice = assay: MeHg model of developmental neurotoxicity, depression-like behavior; format: in vivo, mouse
[1] = test system: hippocampal dentate gyrus; settings: chronic FLX; for effect of FLX treatment on neurogenesis: 12 mo
C57Bl/6 mice [2] = assay: Forced swim test (FST), depression-like behavior; format: in vivo, mouse; settings: for immobility time in FST after FLX treatment: 12 mo, FLX 80 mg/L in drinking water for 21 days
Method: […]; Sigma-Aldrich, Sweden) from gestational day (GD) 14 until delivery. The delivery day was recorded as postnatal day (PND) 0. The litters were culled to 4 pups/litter at PND3. The pups were weighed at PND3, 7, 14, and 21. At weaning (PND21), the mice were implanted subcutaneously with sterile radio-frequency identification (RFID) tags (Trovan Unique 100A, Trovan Ltd., UK) under brief isoflurane anesthesia. The transponders allowed unambiguous identification of animals and were also used for monitoring the activity in homecage environment. After implantation, the pups were redistributed to new cages so that each cage would house a maximum of 5 mice originating from different litters, and the distribution was maintained throughout the study. The mice were kept in an animal facility under 12 h:12 h light-dark (LD) cycle (light intensity 50 lx; light on at 6 a.m.) at constant temperature (22±1° C.) and humidity (50%±5%). The circadian zeitgeber (“time-giver”) time (ZT) 0 corresponds to the subjective sunrise, i.e., the onset of the light phase.
Adult male mice aged 7 weeks, 3 mo, or 12 mo were tested for depression-like behavior in the forced swim tests (FST). Briefly, the animals were individually placed in glass cylinders (24 cm height, 12 cm diameter) filled with water (23.5° C.) to a depth of 16 cm. The animals were exposed to a 15 min pretest followed by a 6 min test 24 h later. Test sessions were videotaped and analysed offline by one investigator who was blind to the treatment and exposure conditions. Immobility was defined as passive floating for at least 2 s. After documenting depression-like behavior at the age of 12 mo, the animals were treated with fluoxetine (FLX; a selective serotonin re-uptake inhibitor antidepressant) dissolved in drinking water (80 mg/L) for 21 days before repeating the test. In addition to FST, depression-like behavior was tested in a tail-suspension test (TST), as described below.

[3] = Corticosterone metabolites in feces; format: in vivo, mouse; settings: prenatal DEX exposure, 12 mo
Method: The circadian pattern of GC secretion at 12 mo was investigated using a minimally invasive approach. To this end, spontaneous fecal boli were collected between ZT1-2 and ZT12-14 (i.e., immediately after the transition between the light and dark phases of the LD cycle). The feces were collected in sterile Eppendorf tubes and stored at −80° C. until further processing. Samples from each mouse were collected on two occasions (7 day interval between samplings) and the measurements for each mouse were averaged before analysing the differences across the LD cycle. The concentration of corticosterone metabolites in dry fecal extracts was measured by enzyme immunoassay according to manufacturer's instructions (DetectX™, Arbor Assays, Ann Arbor, […]., USA).

C57Bl/6 mice [4] = assay: Homecage spontaneous activity (cosinor, periodogram, detrended fluctuation analysis)
Method: The spontaneous activity of mice aged 1, 3, 5, and 12 mo (N=7-8/group) was recorded using the TraffiCage™ system (NewBehavior, Zurich, Switzerland). Briefly, the system consists of an array of radio frequency (RF) antennas placed under the cage with group-housed, freely moving mice. The antennas read the RFID tags and provide an approximate location of each animal with a time resolution of 20 ms. The time interval during which an animal is detected constantly by the same antenna is defined as a “visit.” When an animal changes location enough to be detected by another antenna, a new visit is recorded. Each visit is described by the start time and duration. For long recordings, the number of visits is virtually equal to the number of transitions, and can be used as activity count. The time series of visits are exported as ASCII files and analysed using custom routines developed in Matlab™ R2013b (The MathWorks™, Natick, Md., USA).
The mice were housed in a climate-controlled, isolated room for a period of 6 to 7 weeks, with minimal interactions with human experimenters (except for changing the cage and to replenish food and water, which occurred at random times throughout the experiment). The synchronisation of activity monitoring with the LD cycle was ensured by using a remote control device (TellStick™, Telldus Technologies AB, Lund, Sweden) operated by the computer running TraffiCage™ control software. To minimize the effects of novelty and possible interference from circadian rhythm entrainment, the baseline measurements were derived based on 3 LD cycles after an acclimation period of at least 3 LD cycles.
The analysis of circadian rhythmicity consisted of rhythmometry by means of cosinor analysis. […] We next analysed spontaneous activity by detrended fluctuation analysis (DFA). The method is based on linear regression analysis of the residual variance of the time series against the time scale used for detrending on double-logarithmic plots. The slope of a linear regression in double-logarithmic plot translates into a scaling exponent, and describes the long-term autocorrelation patterns embedded in the time series.

Per2 promoter = assay: Luciferase reporter assay in Per2::Luc primary mouse fibroblasts after DEX synchronisation; format: cell-based; settings: 1 μM DEX single pulse
Method: The generation of knock-in mice expressing firefly luciferase under the control of Per2 promoter (Per2::Luc) has been described previously (Yoo et al. 2004).
(§1) Tissue samples (about 0.25 cm^2) were harvested from the ear of adult (6 mo) control and Dex-exposed mice under terminal anesthesia. The tissue was rinsed in Hank's Balanced Salt Solution (HBSS) (Life Technologies Europe BV, Stockholm, Sweden), then minced with sterile razor blade into Collagenase (Type XI-S) (Sigma-Aldrich, Sweden) (30 min at 37° C.). After digestion, 3 ml of DMEM Medium (Life Technologies) supplemented with 10% Fetal Bovine Serum and 1% Penicillin/Streptomycin (Life Technologies) was added to a 6 cm plate and the samples were incubated at 37° C. for at least 6 days. After passaging (0.05% Trypsin-EDTA; Invitrogen), the cells were plated in 12 multi-well plates in MEF medium (DMEM Medium+10% FBS+1% pen/strep) at a density of at least 50 k/cm^2. […] The number of photons emitted by each culture dish was counted over 1 minute every 10 min (time resolution: 6 data points/h). The time series were further analyzed by means of cosinor analysis as described in Example 4.

Bmal1 = Bmal1 expression in primary fibroblast cultures from control and DEX-exposed mice (qPCR); format: cell-based, mouse; settings: fibroblasts from prenatally DEX-exposed mice aged 6 mo; synchronised with 1 μM DEX
Method: as §1, with “(˜0.25” for “(about 0.25”, “DEX-exposed” for “Dex-exposed”, “cells were then collected between 6 and 36 h after synchronisation. The relative expression” for “number”, “Bmal1 was assessed” for “photons emitted”, “qPCR with Gapdh as housekeeping gene” for “each culture dish was counted over 1 minute every 10 min (time resolution: 6 data points/h). The time series were further analyzed by means of cosinor analysis”, “1 (Table 2: SEQ ID NO 5 and 6, and 1 5 and 2, respectively).” for “4.”

BMAL1, PER1 and PER2 = assay: Clock gene mRNA expression in primary human fibroblasts after DEX synchronisation (qPCR); format: cell-based; settings: 1 μM DEX; fibroblasts from healthy subjects; 6-36 h after synchronisation
Method: A skin biopsy (about 5×2 mm) was collected from the internal aspect of the arm under sterile conditions after local anesthesia using EMLA patches (AstraZeneca, Sodertalje, Sweden). The wound was then covered with a sterile patch, and a small scar is formed typically within […]. The tissue sample was quickly transferred to ice-cold HBSS (Life Technologies Europe BV, Stockholm, Sweden) and minced with a sterile razor blade into Collagenase (Type XI-S) (Sigma-Aldrich, Sweden) (30 min at 37° C.). After digestion, 3 ml of DMEM Medium (Life Technologies) supplemented with 10 mM Hepes buffer, sodium pyruvate, non-essential amino acid mixture, glutamax, 20% Fetal Bovine Serum, and 1% Penicillin/Streptomycin (all supplements were from Life Technologies) was added to a 6 cm plate and the samples were incubated at 37° C. until the fibroblasts reached confluence (typically 3-4 weeks). The confluent fibroblast cultures were passaged (0.05% Trypsin-EDTA; Invitrogen) then plated in 12 multi-well plates at a density of at least 50 k/cm^2 in the same medium as used above. […] The cells were collected between 6 and 36 h after synchronisation. The relative mRNA expression of BMAL1, PER1 and PER2 (Table 2: SEQ ID NO 19 and 20) was assessed by qPCR with HP RT (Table 2: SEQ ID NO 13 and 14) as housekeeping gene. The qPCR procedure is described in Example 1.

C57Bl/6 mice [5] = assay: Tail-suspension test (TST); format: in vivo, mouse; settings: prenatal DEX exposure; mice aged 12 mo
Method: The delivery day was recorded as postnatal day (PND) 0. The litters were culled to 4 pups/litter at PND3. The pups were weighed at PND3, 7, 14, and 21. At weaning (PND21), the mice were implanted subcutaneously with sterile radio-frequency identification (RFID) tags (Trovan Unique 100A, Trovan Ltd., UK) under brief isoflurane anesthesia. The transponders allowed unambiguous identification of animals and were also used for monitoring the activity in homecage environment. After implantation, the pups were redistributed to new cages so that each cage would house a maximum of 5 mice originating from different litters, and the distribution was maintained throughout the study. The mice were kept in an animal facility under 12 h:12 h light-dark (LD) cycle (light intensity 50 lx; light on at 6 a.m.) at constant temperature (22±1° C.) and humidity (50%±5%). The circadian zeitgeber (“time-giver”) time (ZT) 0 corresponds to the subjective sunrise, i.e., the onset of the light phase.
For TST, the mice were allowed to acclimatize in the testing room for at least 30 min before the experiment. The mice were suspended by the tail 15 cm above the table (using adhesive tape placed approx. 2 cm from the base of the tail). Soft padding was provided in order to prevent injuries in case the animal escaped or fell down because of tape failure. After 6 min, the animal were released and placed in the homecage. […]

CNCCC(Oc1ccc(C(F)(F)F)cc1)c1ccccc1 (stereo not drawn) [FLX, fluoxetine]
reversal of depression-like behavior by antidepressant treatment (mice; young adults (2-3 months)): reversed | effect of FLX treatment on neurogenesis ([1]; DEX-exposed mice): did not have any significant effect; also recorded: has no effect | effect of FLX treatment on neurogenesis ([1]; controls): reduces | number of DCX+ cells after FLX ([1]; middle-aged controls): decreased | reversal of depression-like behavior by antidepressant treatment (C57Bl/6 mice [2]; DEX model, middle-aged mice (12 months)): not reversed | immobility time in FST after FLX treatment (C57Bl/6 mice [2]; DEX-exposed mice): not altered | immobility time in FST after FLX treatment (C57Bl/6 mice [2]; control mice): decreases

[CH3][Hg][Cl] [MeHg, methylmercury]
depression-like behavior after developmental exposure (mice): detectable in young adults

C[C@@H]1C[C@H]2[C@@H]3CCC4=CC(=O)C=C[C@]4(C)[C@@]3(F)[C@@H](O)C[C@]2(C)[C@@]1(O)C(=O)CO [DEX, dexamethasone]
levels of corticosterone metabolites in the feces vs controls [3]: lower levels | circadian fluctuations in GC secretion ([3]; ZT1-2 vs ZT12-14): did not show significant circadian fluctuations | scaling coefficient of spontaneous activity (detrended fluctuation analysis) (C57Bl/6 mice [4]; one DEX-exposed mouse (FIG. 6D), control mouse 0.82): 0.88 | amplitude of circadian rhythm (cosinor), baseline vs forced synchronisation (C57Bl/6 mice [4]; prenatal DEX exposure): no significant difference | circadian period of spontaneous activity (C57Bl/6 mice [4]; prenatal DEX exposure, 12 months old, constant steady entrainment): shorter | amplitude of circadian rhythm (cosinor) at baseline vs controls (C57Bl/6 mice [4]; prenatal DEX exposure, LD cycle baseline): larger | scaling exponent, free-running vs circadian entrainment conditions (C57Bl/6 mice [4]; prenatal DEX exposure, all ages investigated): significant fluctuations | acrophase, baseline vs forced synchronisation (C57Bl/6 mice [4]; prenatal DEX exposure, mice aged 3 mo and older): did not vary | time over which oscillations can be detected after initial DEX synchronisation (Per2 promoter): ≤ 10 days | oscillations in Bmal1 expression vs control mice (Bmal1): attenuated oscillations | period of oscillations in clock gene mRNA expression after DEX synchronisation (BMAL1, PER1 and PER2): about 24 h | immobility time in FST vs controls (C57Bl/6 mice [2]; prenatal DEX 0.05 mg/kg/day s.c. from GD14 until delivery, male offspring at 12 mo): increased | depression-like phenotype in tail suspension test (C57Bl/6 mice [5]): reconfirmed
